Reference: patent US20240197767A1, “COMBINATION OF ZIDOVUDINE WITH A TETRACYCLINE ANTIBIOTIC” (Helperby Therapeutics Limited, priority 2019, published 2024)

Key:
Test in all cases: Chequerboard MIC/synergy testing of zidovudine and doxycycline, log phase bacteria
Type in all cases: cell-based
[1] = test system: BAA2470 NDM-1 Klebsiella pneumoniae; settings: strain BAA2470, doxycycline alone
Description: (§1) Synergy in the context of antimicrobial drugs is measured in a number of ways that conform to the generally accepted opinion that “synergy is an effect greater than additive”. One of the ways to assess whether synergy has been observed is to use the “chequerboard” technique. This is a well-accepted method that leads to the generation of a value called the fractional inhibitory concentration index (FICI). Orhan et al., J. Clin. Microbiol. 2005, 43(1):140 describes the chequerboard method and analysis in the paragraph bridging pages 140-141, and explains that the FICI value is a ratio of the sum of the MIC (Minimum Inhibitory Concentration) level of each individual component alone and in the mixture. The combination is considered synergistic when the ΣFIC is ≤0.5, indifferent when the ΣFIC is >0.5 but <4.0, and antagonistic when the ΣFIC is >4.0.
(§2) The chequerboard method used in Example 1 followed the protocols detailed in Antimicrob Chemo (2013) 68, 374-384. Zidovudine and doxycycline were obtained from commercially available sources. The bacteria used were BAA2469 NDM-1 Escherichia coli, BAA2470 NDM-1 Klebsiella pneumoniae, BAA2471 NDM-1 Escherichia coli, BAA2472 NDM-1 Klebsiella pneumoniae, and NCTC13443 NDM-1 Klebsiella pneumoniae. All strains were obtained from a commercial source and log phase growth of the bacteria was carried out using methods known in the art.
(§3) The effects of the combination of the present invention were examined by calculating the fractional inhibitory concentration index (FICI) of each combination, as follows:
(§4) (MIC of drug A,tested in combination)/(MIC of drug A,tested alone)+(MIC of drug B,tested in combination)/(MIC of drug B,tested alone).
(§5) The interaction of the combination was defined as showing synergy if the FICI was […], no interaction if the FICI was >0.5 but <4.0 and antagonism if the FICI was >4.0.

[2] = test system: BAA2471 NDM-1 Escherichia coli; settings: BAA2471, read-out: MIC Doxycycline
Description: as §1, §2, §3, §4, §5

[3] = test system: BAA2469 NDM-1 Escherichia coli; settings: strain BAA2469, doxycycline alone
Description: as §1, §2, §3, §4, §5

[4] = test system: BAA2472 NDM-1 Klebsiella pneumoniae; settings: BAA2472, read-out: MIC Doxycycline
Description: as §1, §2, §3, §4, §5

[5] = test system: NCTC13443 NDM-1 Klebsiella pneumoniae; settings: strain NCTC13443, doxycycline alone
Description: as §1, §2, §3, §4, §5

C[C@H]1c2cccc(O)c2C(=O)C2=C(O)[C@]3(O)C(=O)C(C(N)=O)=C(O)[C@@H](N(C)C)[C@@H]3[C@@H](O)[C@@H]21 [Doxycycline, (4S,4aR,5S,5aR,6R,12aR)-4-(dimethylamino)-1,5,10,11,12a-pentahydroxy-6-methyl-3,12-dioxo-4a,5,5a,6-tetrahydro-4H-tetracene-2-carboxamide]
MIC [1]: 64 µg/mL | MIC [2]: 32 µg/mL | MIC [3]: 64 µg/mL | MIC [4]: 16 µg/mL | MIC [5]: 32 µg/mL
